# In US7132447B2, “Substance FKI-1083 and process for producing the same” (The Kitasato Institute, priority 2001, dated 2006):
# pIC50: −log10 of the molar value.
# What was measured:
# [1] = system: Mucor racemosus IF04581; test: MIC by agar plate dilution method on nutrient agar medium; type: cell-based
# [2] = system: Candida albicans KF1; test: as above; type: cell-based
# [3] = system: Xanthomonas campestris pv. oryzae KB88; test: microbe, parasite or virus in culture; type: cell-based
# [4] = system: Escherichia coli NIHJ; test: MIC by agar plate dilution method on nutrient agar medium; type: cell-based
# [5] = system: Aspergillus niger ATCC6275; test: as above; type: cell-based
# [6] = system: Mycobacterium smegmatis ATCC607; test: as above; type: cell-based; details: Mycolicibacterium smegmatis
# [7] = system: Escherichia coli NIHJ JC-2 (IF012734); test: as above; type: cell-based; details: NIHJJC2
# [8] = system: Pseudomonas aeruginosa IF03080; test: as above; type: cell-based
# [9] = molecular target: NADH-fumarate reductase; test: NADH-fumarate reductase inhibitory activity, Ascaris suum muscle mitochondria fraction, NADH absorption at 340 nm; type: biochemical; details: 37° C., pH 7.0, read-out: concentration showing 50% inhibition of NADH-fumarate reductase activity
# Protocol: Ascaris suum muscle was homogenized in 120 mM sodium phosphate solution (pH 7.0) and centrifuged at 3000×g for 10 minutes to collect the supernatant solution. The solution was further centrifuged at 10000×g for 20 minutes to collect the precipitate. The precipitate was suspended in 120 mM sodium phosphate solution (pH 7.0) to prepare mitochondria fraction. 50% dimethyl sulfoxide solution of FKI-1083 substance 10 μl was added to 96 well microplate. 120 mM sodium phosphate solution (pH 7.0) 80 μl containing 0.35 mM NADH and 7.2 mM disodium fumarate was added thereto and preincubated at 37° C. for 5 minutes in the microplate reader ELX808 (Bio-Tek Industries Inc., the U.S.). Mitochondria fraction of Ascaris suum muscle 10 μl (0.3 mg protein) was added thereto, incubated at 37° C. for 10 minutes and measured absorption of NADH at 340 nm in every 15 seconds. A gradient of the decrease in absorption at 340 nm was assayed as NADH-fumarate reductase activity. […] Consequently, FKI-1083 substance can be expected as a composition for treatment or prevention of helminthiasis.
# [10] = system: Staphylococcus aureus ATCC6538p; test: MIC by agar plate dilution method on nutrient agar medium; type: cell-based
# [11] = system: Micrococcus luteus ATCC9341; test: as above; type: cell-based
# [12] = system: Artemia salina; test: Anthropodicidal activity, movement of nauplius larvae observed under microscope in 96 well plate; type: in vivo
# Protocol: (§1) Methanol solution of FKI-1083 substance of the present invention was added to a 96 well plate (Corning Inc., the U.S.). […] A test medium (lecithin 0.01%, sodium hydrogen carbonate 7.5 mM, potassium chloride 7.5 mM, calcium chloride dihydrate 7.5 mM, and magnesium sulfate heptahydrate 7.5 mM) 250 μl was added thereto and shaken for 15 minutes. Approximately 10 Caenorhabditis elegans cultured on the agar medium for nematode growth [a medium in which E. coli was cultured on a medium consisting of bactoagar (DIFCO Inc., the U.S.) 1.7%, bactopeptone (DIFCO Inc., the U.S.) 0.5%, yeast extract (DIFCO Inc., the U.S.) 1.0%, sodium chloride 0.3%, cholesterol 0.0005%, calcium chloride 0.007%, magnesium sulfate 0.03%, dipotassium hydrogen phosphate 0.34%, and potassium dihydrogen phosphate 0.11%] were added thereto. Separately, a buffer solution 50 μl containing several numbers of nauplius larvae of Artemia salina hatched in the buffer (Tris 0.24%, sodium chloride 2.57%, magnesium chloride 0.47%, potassium chloride 0.07%, sodium carbonate 0.02%, magnesium sulfate 0.64% and calcium chloride 0.11%, pH 7.1) was added. Conditions of these nematode and arthropod were observed under microscope. […] Consequently, FKI-1083 substance of the present invention is useful as anthelmintic and insecticide.
# [13] = system: Caenorhabditis elegans; test: Nematocidal activity, movement observed under microscope in 96 well plate; type: in vivo
# Protocol: as §1
# [14] = system: Bacillus subtilis ATCC6633; test: MIC by agar plate dilution method on nutrient agar medium; type: cell-based
# [15] = system: Saccharomyces cerevisiae KF26; test: as above; type: cell-based
# Description: Minimum inhibitory concentration (MIC) of FKI-1083 substance of the present invention against various microorganisms on nutrient agar medium by agar plate dilution method is shown in Table 3.
compound,measurement,setting,value
CCCCCCCC/C(C)=C/Cc1oc(OC)c(C)c(=O)c1C [FKI-1083 substance],MIC,[1],> 100 µg/mL
same,MIC,[2],> 100 µg/mL
same,MIC,[3],> 100 µg/mL
same,MIC,[4],> 100 µg/mL
same,MIC,[5],> 100 µg/mL
same,MIC,[6],12.5 µg/mL
same,MIC,[7],> 100 µg/mL
same,MIC,[8],> 100 µg/mL
same,pIC50,[9],8.39
same,MIC,[10],6.25 µg/mL
same,MIC,[11],6.25 µg/mL
same,concentration at which movement was inhibited,[12],2 µg/mL
same,concentration at which movement was inhibited,[13],20 µg/mL
same,MIC,[14],6.25 µg/mL
same,MIC,[15],> 100 µg/mL
